Measurements published in PubChem BioAssay (NCI).
Several values for one entry are separate records, joined by “and”; a condition that tells them apart may be missing. Equal values may be shown once.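 Briefly, cells in 96-well plates were exposed to five compound concentrations for 48 h, and endpoints were estimated by linear interpolation. At the GI50, growth is halved. The concentration for full growth arrest is given as TGI.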

Key:
Assay in all cases: DTP human tumour cell line panel, 48 h
A498 renal = system: A498 renal
A549 NSCLC = system: A549 NSCLC
HCC-2998 colon = system: HCC-2998 colon
HS 578T breast = system: HS 578T breast
IGROV1 ovarian = system: IGROV1 ovarian
MDA-MB-231 breast = system: MDA-MB-231 breast
NCI-H460 lung = system: NCI-H460 lung
SN12C renal = system: SN12C renal
SNB-75 CNS = system: SNB-75 CNS
TK-10 renal = system: TK-10 renal

## CN1CCC(CNc2ccc3ncc(-c4cccc(OC(F)(F)F)c4)n3n2)CC1
A498 renal
  GI50: 0.869 µM and 1.58 µM
  TGI: 3.28 µM and 7.47 µM
A549 NSCLC
  GI50: 1.85 µM and 2.3 µM
  TGI: 4.97 µM and > 10 µM
HCC-2998 colon
  GI50: 1.57 µM and 1.45 µM
  TGI: 3.15 µM and 3.32 µM
HS 578T breast
  GI50: 1.66 µM and 1.63 µM
  TGI: 4.5 µM and 7.17 µM
IGROV1 ovarian
  GI50: 2.91 µM and 2.27 µM
  TGI: 9.09 µM and 9.11 µM
MDA-MB-231 breast
  GI50: 1.62 µM and 1.26 µM
  TGI: 3.65 µM and 2.77 µM
NCI-H460 lung
  GI50: 2.16 µM and 2.94 µM
  TGI: 5.68 µM and > 10 µM
SN12C renal
  GI50: 2.14 µM and 2.3 µM
  TGI: 7.14 µM and > 10 µM
SNB-75 CNS
  GI50: 1.39 µM and 1.09 µM
  TGI: 4.46 µM and 8.12 µM
TK-10 renal
  GI50: 2.36 µM and 2.16 µM
  TGI: 8.52 µM and > 10 µM

## C[C@@H](N)C1CCC(C(=O)Nc2ccncc2)CC1 (stereo not given in full)
A498 renal
  GI50: > 100 µM
  TGI: > 100 µM
A549 NSCLC
  GI50: > 100 µM
  TGI: > 100 µM
HCC-2998 colon
  GI50: > 100 µM
  TGI: > 100 µM
HS 578T breast
  GI50: 26.4 µM
  TGI: > 100 µM
IGROV1 ovarian
  GI50: 81.6 µM
  TGI: > 100 µM
MDA-MB-231 breast
  GI50: > 100 µM
  TGI: > 100 µM
NCI-H460 lung
  GI50: > 100 µM
  TGI: > 100 µM
SN12C renal
  GI50: > 100 µM
  TGI: > 100 µM
SNB-75 CNS
  GI50: 5.58 µM
  TGI: > 100 µM
TK-10 renal
  GI50: 8.7 µM
  TGI: > 100 µM

## CCCOc1ccc(-c2nc(-c3ccc(N=Cc4ccc(N(CCOS(C)(=O)=O)CCOS(C)(=O)=O)cc4C)cc3)cs2)cc1
A498 renal
  TGI: 24.2 µM
A549 NSCLC
  TGI: 34.2 µM
HCC-2998 colon
  TGI: 26.8 µM
HS 578T breast
  TGI: > 90.9 µM
IGROV1 ovarian
  TGI: > 67.1 µM
MDA-MB-231 breast
  TGI: 86 µM
NCI-H460 lung
  TGI: 24 µM
SN12C renal
  TGI: > 92.6 µM
SNB-75 CNS
  TGI: 18 µM
TK-10 renal
  TGI: 41.1 µM

## COc1c2ccoc2cc2oc(=O)ccc12
A498 renal
  TGI: > 100 µM
A549 NSCLC
  TGI: > 100 µM
HCC-2998 colon
  TGI: > 100 µM
HS 578T breast
  TGI: > 100 µM
IGROV1 ovarian
  TGI: > 100 µM
MDA-MB-231 breast
  TGI: > 100 µM
NCI-H460 lung
  TGI: > 100 µM
SN12C renal
  TGI: > 100 µM
SNB-75 CNS
  TGI: > 100 µM
TK-10 renal
  TGI: > 100 µM

## CN[C@@H](C)C(=O)N[C@H]1CN(C(=O)CC(C)C)CC[C@H]2CC[C@@H](C(=O)NC(c3ccccc3)c3ccccc3)N2C1=O
A498 renal
  GI50: > 42.7 µM
  TGI: > 100 µM
A549 NSCLC
  GI50: > 100 µM
  TGI: > 100 µM
HCC-2998 colon
  GI50: > 100 µM
  TGI: > 100 µM
HS 578T breast
  GI50: > 81.7 µM
  TGI: > 100 µM
IGROV1 ovarian
  GI50: > 100 µM
  TGI: > 100 µM
MDA-MB-231 breast
  GI50: 0.642 µM
  TGI: 5.7 µM
NCI-H460 lung
  GI50: > 100 µM
  TGI: > 100 µM
SN12C renal
  GI50: > 100 µM
  TGI: > 100 µM
SNB-75 CNS
  GI50: 15.7 µM
  TGI: > 100 µM
TK-10 renal
  GI50: > 100 µM
  TGI: > 100 µM

## Cc1nc2ccccn2c1NC(=O)NNC(=S)Nc1ccc(Br)cc1
A498 renal
  GI50: 32.8 µM
  TGI: 88.1 µM
A549 NSCLC
  GI50: 71.6 µM
  TGI: > 100 µM
HCC-2998 colon
  GI50: 27.4 µM
  TGI: 73.1 µM
HS 578T breast
  GI50: 54.8 µM
  TGI: > 100 µM
IGROV1 ovarian
  GI50: 48.9 µM
  TGI: > 100 µM
MDA-MB-231 breast
  GI50: 22.6 µM
  TGI: 59.1 µM
NCI-H460 lung
  GI50: 34.1 µM
  TGI: > 100 µM
SN12C renal
  GI50: 35.9 µM
  TGI: > 100 µM
SNB-75 CNS
  GI50: 26.1 µM
  TGI: 67.5 µM
TK-10 renal
  GI50: 74.1 µM
  TGI: > 100 µM

## O=C(CCCCCCCn1cc(-c2cccnc2)nn1)Nc1ccccc1-c1ccccc1
A498 renal
  GI50: 13.7 µM
  TGI: > 86.1 µM
A549 NSCLC
  GI50: 1.15 µM
  TGI: > 100 µM
HCC-2998 colon
  GI50: 0.385 µM
  TGI: > 61.8 µM
HS 578T breast
  GI50: 7.22 µM
  TGI: > 100 µM
IGROV1 ovarian
  GI50: 0.272 µM
  TGI: > 100 µM
MDA-MB-231 breast
  GI50: 21.3 µM
  TGI: > 100 µM
NCI-H460 lung
  GI50: 0.674 µM
  TGI: > 100 µM
SN12C renal
  GI50: 0.0475 µM
  TGI: > 100 µM
SNB-75 CNS
  GI50: 29.8 µM
  TGI: > 100 µM
TK-10 renal
  GI50: 17.4 µM
  TGI: > 100 µM

## O=C(c1ccc(OCCN2CCCCC2)cc1)c1c(-c2ccc(O)cc2)sc2cc(O)ccc12
A498 renal
  GI50: 11.6 µM
  TGI: 26.2 µM
A549 NSCLC
  GI50: 13.2 µM and 14.3 µM
  TGI: 29.3 µM and 37.9 µM
HCC-2998 colon
  GI50: 6.37 µM and 19.1 µM
  TGI: 19.2 µM and 36.8 µM
HS 578T breast
  GI50: 2.99 µM and 9.71 µM
  TGI: 22.8 µM and 47.8 µM
IGROV1 ovarian
  GI50: 12.3 µM and 16.5 µM
  TGI: 28.9 µM and 38.5 µM
MDA-MB-231 breast
  GI50: 10.4 µM and 9.02 µM
  TGI: 23.2 µM and 23.6 µM
NCI-H460 lung
  GI50: 4.29 µM and 7.96 µM
  TGI: 17.1 µM and 25.9 µM
SN12C renal
  GI50: 13.5 µM and 14.5 µM
  TGI: 29.7 µM and 29.8 µM
SNB-75 CNS
  GI50: 7.55 µM and 8.56 µM
  TGI: 20.6 µM and 23.6 µM
TK-10 renal
  GI50: 16.7 µM and 16.3 µM
  TGI: 31.8 µM and 33.3 µM

## O=Nc1ccc(O)c2ccccc12
A498 renal
  GI50: 15.1 µM
  TGI: 28.6 µM
A549 NSCLC
  GI50: 2.14 µM
  TGI: 4.79 µM
HCC-2998 colon
  GI50: 3.31 µM
  TGI: 11.3 µM
HS 578T breast
  GI50: 0.868 µM
  TGI: 4.18 µM
IGROV1 ovarian
  GI50: 1.51 µM
  TGI: 3.29 µM
MDA-MB-231 breast
  GI50: 2.93 µM
  TGI: 20.4 µM
NCI-H460 lung
  GI50: 3.66 µM
  TGI: 13.5 µM
SN12C renal
  GI50: 1.38 µM
  TGI: 3.22 µM
SNB-75 CNS
  GI50: 1.44 µM
  TGI: 3.02 µM
TK-10 renal
  GI50: 2.24 µM
  TGI: 4.66 µM

## COc1ccccc1-c1cc(/C=C2\C(=O)Nc3ncc(Br)cc32)cc(Br)c1O
A498 renal
  GI50: 3.73 µM
  TGI: 19.5 µM
A549 NSCLC
  GI50: 11.8 µM
  TGI: > 25 µM
HCC-2998 colon
  GI50: > 25 µM
  TGI: > 25 µM
HS 578T breast
  GI50: 7.67 µM
  TGI: > 25 µM
IGROV1 ovarian
  GI50: 10.4 µM
  TGI: > 25 µM
MDA-MB-231 breast
  GI50: 8.52 µM
  TGI: > 25 µM
NCI-H460 lung
  GI50: 11.6 µM
  TGI: > 25 µM
SN12C renal
  GI50: 12.1 µM
  TGI: > 25 µM
SNB-75 CNS
  GI50: 6.03 µM
  TGI: > 25 µM
TK-10 renal
  GI50: 9.95 µM
  TGI: > 25 µM

## CCCCCCCCCCCCNC(=O)[C@H]1CSC(c2cc3ccccc3s2)N1 (stereo not given in full)
A498 renal
  GI50: 10.2 µM
  TGI: 26.3 µM
A549 NSCLC
  GI50: 6.01 µM
  TGI: 11.3 µM
HCC-2998 colon
  GI50: 4.88 µM
  TGI: 9.72 µM
HS 578T breast
  GI50: 0.777 µM
  TGI: 1.86 µM
IGROV1 ovarian
  GI50: 0.923 µM
  TGI: 2.51 µM
MDA-MB-231 breast
  GI50: 0.706 µM
  TGI: 1.46 µM
NCI-H460 lung
  GI50: 1.02 µM
  TGI: 2.5 µM
SN12C renal
  GI50: 2.8 µM
  TGI: 7.24 µM
SNB-75 CNS
  GI50: 0.599 µM
  TGI: 1.12 µM
TK-10 renal
  GI50: 1.27 µM
  TGI: 4.88 µM

## COC(=O)C(Cc1cnc[nH]1)NC(=O)CNC(=O)CCCn1c(=O)c2c3ccccc3n(C)c2n2nnc(-c3ccccc3)c12 (stereo not given)
A498 renal
  GI50: > 100 µM
  TGI: > 100 µM
A549 NSCLC
  GI50: > 100 µM
  TGI: > 100 µM
HCC-2998 colon
  GI50: > 100 µM
  TGI: > 100 µM
HS 578T breast
  GI50: > 100 µM
  TGI: > 100 µM
IGROV1 ovarian
  GI50: 72.5 µM
  TGI: > 100 µM
MDA-MB-231 breast
  GI50: > 100 µM
  TGI: > 100 µM
NCI-H460 lung
  GI50: > 100 µM
  TGI: > 100 µM
SN12C renal
  GI50: > 100 µM
  TGI: > 100 µM
SNB-75 CNS
  GI50: > 100 µM
  TGI: > 100 µM
TK-10 renal
  GI50: > 100 µM
  TGI: > 100 µM
